Reference: patent publication US10870646B2, “Oxazolidinones and pharmaceutical compositions thereof for treating bacterial infections, including infection of Mycobacterium tuberculosis” (University of St. Thomas, priority 2017, dated 2020)
In brackets after ≈: the same amount, converted by molar mass. Read-outs that look alike come from different tables or passages of the source.

Tests used:
[1] = test system: Mycobacterium tuberculosis H37Rv; assay: MIC90 broth macrodilution; type: cell-based
[2] = test system: Mycobacterium tuberculosis 115R; assay: MIC90 broth macrodilution; type: cell-based
[3] = test system: Mycobacterium tuberculosis 124R; assay: MIC90 broth macrodilution; type: cell-based
[4] = test system: Mtb; type: cell-based, Mycobacterium tuberculosis

| Structure (SMILES) | activity against growth (in words) [1] | MIC90 [2] | MIC90 [3] | frequency of spontaneous mutations that confer resistance [4] | MIC90 ([2]; read-out: MIC90) | MIC90 ([3]; read-out: MIC90) |
| --- | --- | --- | --- | --- | --- | --- |
| CC(=O)NC[C@H]1CN(c2ccc3c(c2)Oc2ccccc2O3)C(=O)O1 [Compound T145] | potent activity | 0.5 to 1 µg/mL (≈ 1.47 to 2.94 µM) | 0.5 to 1 µg/mL (≈ 1.47 to 2.94 µM) | 4.0×10^−8 |  |  |
| C[C@@H](O)[C@H]1C(=O)N2C(C(=O)O)=C(S[C@@H]3CN[C@H](C(=O)N(C)C)C3)[C@H](C)[C@H]12 [Meropenem, reference compound] |  |  |  |  | 8 to 16 µg/mL (≈ 20.9 to 41.7 µM) | 8 to 16 µg/mL (≈ 20.9 to 41.7 µM) |
| COc1cccc2c1Oc1ccc(N3C[C@H](CNC(C)=O)OC3=O)cc1O2 [Compound T197, (S)—N-((3-(6-methoxydibenzo[b,e][1,4]dioxin-2-yl)-2-oxooxazolidin-5-yl)methyl)acetamide] |  |  |  |  | 8 to 16 µg/mL (≈ 21.6 to 43.2 µM) | 4 to 8 µg/mL (≈ 10.8 to 21.6 µM) |
| CC(=O)NC[C@H]1CN(c2ccc(N3CCOCC3)c(F)c2)C(=O)O1 [Linezolid, reference compound] |  |  |  |  | 0.25 to 0.5 µg/mL (≈ 0.741 to 1.48 µM) | 0.25 to 0.5 µg/mL (≈ 0.741 to 1.48 µM) |
